Test results taken from ChEMBL document CHEMBL1201861, “Genomics of Drug Sensitity in Cancer screening data, Wellcome Trust Sanger Institute”.

How the values were obtained:
Test in all cases: cells
[1] = tested on: CP50-MEL-B; assay type: functional, cell-based, Homo sapiens; conditions: Homo sapiens, CP50-MEL-B;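 note: growth inhibition of the human cell line, measured with a cell viability read-out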
Description: SANGER: Inhibition of human CP50-MEL-B cell growth in a cell viability assay.

[2] = tested on: Calu-3; assay type: functional, cell-based, Homo sapiens; conditions: Homo sapiens, Calu-3;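 note: growth inhibition of human Calu-3 cells, determined with a cell viability assay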
Description: SANGER: Inhibition of human Calu-3 cell growth in a cell viability assay.

[3] = tested on: DU-145; assay type: functional, cell-based, Homo sapiens; conditions: Homo sapiens, DU-145
Description: SANGER: Inhibition of human DU-145 cell growth in a cell viability assay.

[4] = tested on: H-EMC-SS; assay type: functional, cell-based, Homo sapiens; conditions: Homo sapiens, H-EMC-SS
Description: SANGER: Inhibition of human H-EMC-SS cell growth in a cell viability assay.

[5] = tested on: HCC1569; assay type: functional, cell-based, Homo sapiens; conditions: Homo sapiens, HCC1569;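 note: growth inhibition of human HCC1569 cells, read out with a cell viability assay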
Description: SANGER: Inhibition of human HCC1569 cell growth in a cell viability assay.

[6] = tested on: HOP-92; assay type: functional, cell-based, Homo sapiens; conditions: Homo sapiens, HOP-92;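 note: cell viability readout, with IC50 reflecting inhibition of HOP-92 cell growth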
Description: SANGER: Inhibition of human HOP-92 cell growth in a cell viability assay.

[7] = tested on: HSC-3; assay type: functional, cell-based, Homo sapiens; conditions: Homo sapiens, HSC-3
Description: SANGER: Inhibition of human HSC-3 cell growth in a cell viability assay.

[8] = tested on: HT1197; assay type: functional, cell-based, Homo sapiens, HT-1197; conditions: Homo sapiens, HT1197
Description: SANGER: Inhibition of human HT-1197 cell growth in a cell viability assay.

[9] = tested on: HT-1376; assay type: functional, cell-based, Homo sapiens; conditions: Homo sapiens, HT-1376
Description: SANGER: Inhibition of human HT-1376 cell growth in a cell viability assay.

[10] = tested on: HuCCT-1; assay type: functional, cell-based, Homo sapiens, HuCCT1; conditions: Homo sapiens, HuCCT-1;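 note: growth inhibition of HuCCT-1 cells, read out by a cell viability assay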
Description: SANGER: Inhibition of human HuCCT1 cell growth in a cell viability assay.

[11] = tested on: HuP-T3; assay type: functional, cell-based, Homo sapiens; conditions: Homo sapiens, HuP-T3;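 note: HuP-T3 cell growth inhibition, read out with a cell viability assay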
Description: SANGER: Inhibition of human HuP-T3 cell growth in a cell viability assay.

[12] = tested on: JEG-3; assay type: functional, cell-based, Homo sapiens; conditions: Homo sapiens, JEG-3;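 note: growth inhibition of human JEG-3 cells, read out with a cell viability assay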
Description: SANGER: Inhibition of human JEG-3 cell growth in a cell viability assay.

[13] = tested on: KYSE-150 cell line; assay type: functional, cell-based, Homo sapiens; conditions: Homo sapiens, KYSE-150;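 note: growth inhibition of human KYSE-150 cells, read out with a cell viability assay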
Description: SANGER: Inhibition of human KYSE-150 cell growth in a cell viability assay.

[14] = tested on: KYSE-510; assay type: functional, cell-based, Homo sapiens; conditions: Homo sapiens, KYSE-510;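 note: cell viability readout used to measure how strongly growth of the cell line is suppressed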
Description: SANGER: Inhibition of human KYSE-510 cell growth in a cell viability assay.

[15] = tested on: LCLC-97TM1; assay type: functional, cell-based, Homo sapiens; conditions: Homo sapiens, LCLC-97TM1;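 note: cell viability assay measuring growth inhibition of human LCLC-97TM1 cells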
Description: SANGER: Inhibition of human LCLC-97TM1 cell growth in a cell viability assay.

[16] = tested on: MDA-MB-361; assay type: functional, cell-based, Homo sapiens; conditions: Homo sapiens, MDA-MB-361
[17] = tested on: NCI-H1563; assay type: functional, cell-based, Homo sapiens; conditions: Homo sapiens, NCI-H1563;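 note: growth inhibition of human NCI-H1563 cells, read out with a cell viability assay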
Description: SANGER: Inhibition of human NCI-H1563 cell growth in a cell viability assay.

[18] = tested on: NCI-H1755; assay type: functional, cell-based, Homo sapiens; conditions: Homo sapiens, NCI-H1755;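 note: cell viability readout used to measure growth inhibition of NCI-H1755 cells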
Description: SANGER: Inhibition of human NCI-H1755 cell growth in a cell viability assay.

[19] = tested on: NCI-H2052; assay type: functional, cell-based, Homo sapiens; conditions: Homo sapiens, NCI-H2052;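 note: growth inhibition of NCI-H2052 cells, read out with a cell viability assay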
Description: SANGER: Inhibition of human NCI-H2052 cell growth in a cell viability assay.

[20] = tested on: NCI-H727; assay type: functional, cell-based, Homo sapiens; conditions: Homo sapiens, NCI-H727;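 note: growth inhibition of human NCI-H727 cells, read out with a cell viability assay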
Description: SANGER: Inhibition of human NCI-H727 cell growth in a cell viability assay.

[21] = tested on: NCI-H810; assay type: functional, cell-based, Homo sapiens; conditions: Homo sapiens, NCI-H810;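 note: IC50 reflects inhibition of cancer cell line growth, read out with a cell viability assay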
Description: SANGER: Inhibition of human NCI-H810 cell growth in a cell viability assay.

[22] = tested on: OVCAR-5; assay type: functional, cell-based, Homo sapiens; conditions: Homo sapiens, OVCAR-5;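 note: growth inhibition of human OVCAR-5 cells, read out with a cell viability assay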
Description: SANGER: Inhibition of human OVCAR-5 cell growth in a cell viability assay.

[23] = tested on: P12-Ichikawa; assay type: functional, cell-based, Homo sapiens; conditions: Homo sapiens, P12-Ichikawa
[24] = tested on: Panc1005; assay type: functional, cell-based, Homo sapiens; conditions: Homo sapiens, Panc1005;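 note: growth inhibition of human PANC-10-05 cells, measured by a cell viability assay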
Description: SANGER: Inhibition of human PANC-10-05 cell growth in a cell viability assay.

[25] = tested on: PC-14; assay type: functional, cell-based, Homo sapiens; conditions: Homo sapiens, PC-14;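 note: cell viability assay measuring inhibition of PC-14 cell growth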
Description: SANGER: Inhibition of human PC-14 cell growth in a cell viability assay.

[26] = tested on: RCM-1; assay type: functional, cell-based, Homo sapiens; conditions: Homo sapiens, RCM-1;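 note: growth inhibition of the RCM-1 line, determined with a cell viability readout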
Description: SANGER: Inhibition of human RCM-1 cell growth in a cell viability assay.

[27] = tested on: SCC-9; assay type: functional, cell-based, Homo sapiens; conditions: Homo sapiens, SCC-9;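 note: Read-out is a cell viability assay, with values giving inhibition of cell growth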
Description: SANGER: Inhibition of human SCC-9 cell growth in a cell viability assay.

[28] = tested on: SF-295; assay type: functional, cell-based, Homo sapiens; conditions: Homo sapiens, SF-295;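 note: growth inhibition of SF-295 cells, read out with a cell viability assay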
Description: SANGER: Inhibition of human SF295 cell growth in a cell viability assay.

[29] = tested on: SK-HEP1; assay type: functional, cell-based, Homo sapiens, SK-HEP-1; conditions: Homo sapiens, SK-HEP1;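 note: cell viability readout used to quantify reduction in proliferation of human SK-HEP-1 cells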
Description: SANGER: Inhibition of human SK-HEP-1 cell growth in a cell viability assay.

[30] = tested on: SK-MEL-24; assay type: functional, cell-based, Homo sapiens; conditions: Homo sapiens, SK-MEL-24;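 note: growth inhibition read out by a cell viability assay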
Description: SANGER: Inhibition of human SK-MEL-24 cell growth in a cell viability assay.

[31] = tested on: SK-MEL3; assay type: functional, cell-based, Homo sapiens, SK-MEL-3; conditions: Homo sapiens, SK-MEL3;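 note: growth inhibition of human SK-MEL-3 cells, read out with a cell viability assay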
Description: SANGER: Inhibition of human SK-MEL-3 cell growth in a cell viability assay.

[32] = tested on: SN12C; assay type: functional, cell-based, Homo sapiens; conditions: Homo sapiens, SN12C;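 note: growth inhibition of human SN12C cells, measured by a cell viability assay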
Description: SANGER: Inhibition of human SN12C cell growth in a cell viability assay.

[33] = tested on: SW 1116; assay type: functional, cell-based, Homo sapiens; conditions: Homo sapiens, SW 1116;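 note: growth inhibition of SW1116 cells, read out with a cell viability assay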
Description: SANGER: Inhibition of human SW1116 cell growth in a cell viability assay.

[34] = tested on: A2058; assay type: functional, cell-based, Homo sapiens; conditions: Homo sapiens, A2058;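 note: reduction of A2058 cell growth, read out with a viability assay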
Description: SANGER: Inhibition of human A2058 cell growth in a cell viability assay.

[35] = tested on: ACHN; assay type: functional, cell-based, Homo sapiens; conditions: Homo sapiens, ACHN;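 note: cell viability read-out used to gauge how strongly growth of human ACHN cells is suppressed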
Description: SANGER: Inhibition of human ACHN cell growth in a cell viability assay.

[36] = tested on: AN3-CA; assay type: functional, cell-based, Homo sapiens; conditions: Homo sapiens, AN3-CA;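 note: growth inhibition of human AN3-CA cells measured by a cell viability assay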
Description: SANGER: Inhibition of human AN3-CA cell growth in a cell viability assay.

[37] = tested on: ASPC1; assay type: functional, cell-based, Homo sapiens; conditions: Homo sapiens, ASPC1;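 note: growth inhibition of AsPC-1 cells, read out with a cell viability assay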
Description: SANGER: Inhibition of human AsPC-1 cell growth in a cell viability assay.

[38] = tested on: BFTC-905; assay type: functional, cell-based, Homo sapiens; conditions: Homo sapiens, BFTC-905
Description: SANGER: Inhibition of human BFTC-905 cell growth in a cell viability assay.

[39] = tested on: BFTC-909; assay type: functional, cell-based, Homo sapiens; conditions: Homo sapiens, BFTC-909
Description: SANGER: Inhibition of human BFTC-909 cell growth in a cell viability assay.

[40] = tested on: C-33-A; assay type: functional, cell-based, Homo sapiens; conditions: Homo sapiens, C-33-A;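 note: cell viability assay measuring growth inhibition of C-33-A cells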
Description: SANGER: Inhibition of human C-33-A cell growth in a cell viability assay.

[41] = tested on: CAL-27; assay type: functional, cell-based, Homo sapiens; conditions: Homo sapiens, CAL-27;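 note: Viability-based readout, IC50 reflecting inhibition of CAL-27 cell growth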
Description: SANGER: Inhibition of human CAL-27 cell growth in a cell viability assay.

[42] = tested on: CAL-85-1; assay type: functional, cell-based, Homo sapiens; conditions: Homo sapiens, CAL-85-1;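 note: growth inhibition of human CAL-85-1 cells, read out with a cell viability assay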
Description: SANGER: Inhibition of human CAL-85-1 cell growth in a cell viability assay.

[43] = tested on: ZR-75-30; assay type: functional, cell-based, Homo sapiens; conditions: Homo sapiens, ZR-75-30;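 note: growth inhibition of ZR-75-30 cells, measured with a cell viability readout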
Description: SANGER: Inhibition of human ZR-75-30 cell growth in a cell viability assay.

## COc1cc2c(Nc3ccc(NC(=O)c4ccccc4)cc3)ncnc2cc1OCCCN1CCOCC1
[1]
  IC50: > 4 µM
[2]
  IC50: > 4 µM
[3]
  IC50: > 4 µM
[4]
  IC50: > 4 µM
[5]
  IC50: > 4 µM
[6]
  IC50: > 4 µM
[7]
  IC50: 3.37 µM
[8]
  IC50: > 4 µM
[9]
  IC50: > 4 µM
[10]
  IC50: > 4 µM
[11]
  IC50: > 4 µM
[12]
  IC50: > 4 µM
[13]
  IC50: > 4 µM
[14]
  IC50: 3.64 µM
[15]
  IC50: 2.18 µM
[16]
  IC50: > 4 µM
[17]
  IC50: > 4 µM
[18]
  IC50: > 4 µM
[19]
  IC50: > 4 µM
[20]
  IC50: > 4 µM
[21]
  IC50: > 4 µM
[22]
  IC50: > 4 µM
[23]
  IC50: 0.224 µM
[24]
  IC50: > 4 µM
[25]
  IC50: > 4 µM
[26]
  IC50: > 4 µM
[27]
  IC50: > 4 µM
[28]
  IC50: > 4 µM
[29]
  IC50: > 4 µM
[30]
  IC50: > 4 µM
[31]
  IC50: > 4 µM
[32]
  IC50: > 4 µM
[33]
  IC50: > 4 µM
[34]
  IC50: > 4 µM
[35]
  IC50: > 4 µM
[36]
  IC50: > 4 µM
[37]
  IC50: > 4 µM
[38]
  IC50: 2.42 µM
[39]
  IC50: > 4 µM
[40]
  IC50: > 4 µM
[41]
  IC50: > 4 µM
[42]
  IC50: > 4 µM
[43]
  IC50: > 4 µM

## CC(C)c1ccccc1Cc1cc(C(=O)Nc2ccc(S(=O)(=O)c3ccccc3C(C)(C)C)cc2)c(O)c(O)c1O
[1]
  IC50: 0.0696 µM
[2]
  IC50: 5.4 µM
[3]
  IC50: 0.0521 µM
[4]
  IC50: 0.378 µM
[5]
  IC50: 4.88 µM
[6]
  IC50: 0.358 µM
[7]
  IC50: 0.286 µM
[8]
  IC50: 5.95 µM
[9]
  IC50: 1.9 µM
[10]
  IC50: 0.348 µM
[11]
  IC50: 1.29 µM
[12]
  IC50: 0.736 µM
[13]
  IC50: 0.465 µM
[14]
  IC50: 0.222 µM
[15]
  IC50: 0.917 µM
[16]
  IC50: 0.226 µM
[17]
  IC50: 0.124 µM
[18]
  IC50: 1.62 µM
[19]
  IC50: 1.39 µM
[20]
  IC50: 0.941 µM
[21]
  IC50: 0.666 µM
[22]
  IC50: 0.576 µM
[24]
  IC50: 1.1 µM
[25]
  IC50: 0.331 µM
[26]
  IC50: 3.39 µM
[27]
  IC50: 0.957 µM
[28]
  IC50: 0.629 µM
[29]
  IC50: 1.51 µM
[30]
  IC50: 0.41 µM
[31]
  IC50: 0.693 µM
[32]
  IC50: 1.11 µM
[33]
  IC50: 8.45 µM
[34]
  IC50: 0.367 µM
[35]
  IC50: 0.149 µM
[36]
  IC50: 0.898 µM
[37]
  IC50: 0.973 µM
[38]
  IC50: 0.708 µM
[39]
  IC50: 0.258 µM
[40]
  IC50: 0.109 µM
[41]
  IC50: 0.136 µM
[42]
  IC50: 1.43 µM
[43]
  IC50: 1.42 µM

## CC(C)CCN1c2nc(Nc3cc(F)c(O)c(F)c3)ncc2N(C)C(=O)C1C (stereo not drawn)
[1]
  IC50: > 5 µM
[2]
  IC50: > 5 µM
[3]
  IC50: 2.11 µM
[4]
  IC50: > 5 µM
[5]
  IC50: > 5 µM
[6]
  IC50: > 5 µM
[7]
  IC50: 0.818 µM
[8]
  IC50: > 5 µM
[9]
  IC50: 4.23 µM
[10]
  IC50: > 5 µM
[11]
  IC50: > 5 µM
[12]
  IC50: 3.69 µM
[13]
  IC50: 2.15 µM
[14]
  IC50: 4.26 µM
[15]
  IC50: 2.6 µM
[16]
  IC50: > 5 µM
[17]
  IC50: > 5 µM
[18]
  IC50: > 5 µM
[19]
  IC50: > 5 µM
[20]
  IC50: > 5 µM
[21]
  IC50: 3.22 µM
[22]
  IC50: > 5 µM
[23]
  IC50: 2.53 µM
[24]
  IC50: > 5 µM
[25]
  IC50: > 5 µM
[26]
  IC50: > 5 µM
[27]
  IC50: > 5 µM
[28]
  IC50: > 5 µM
[29]
  IC50: > 5 µM
[30]
  IC50: > 5 µM
[31]
  IC50: > 5 µM
[32]
  IC50: > 5 µM
[33]
  IC50: > 5 µM
[34]
  IC50: > 5 µM
[35]
  IC50: > 5 µM
[36]
  IC50: > 5 µM
[37]
  IC50: > 5 µM
[38]
  IC50: 1.56 µM
[39]
  IC50: > 5 µM
[40]
  IC50: > 5 µM
[41]
  IC50: > 5 µM
[42]
  IC50: > 5 µM
[43]
  IC50: > 5 µM

## Cn1cnc2c(F)c(Nc3ccc(Br)cc3Cl)c(C(=O)NOCCO)cc21 [SELUMETINIB]
[1]
  IC50: 0.128 µM
[2]
  IC50: > 4 µM
[3]
  IC50: > 4 µM
[4]
  IC50: 0.291 µM
[5]
  IC50: > 4 µM
[6]
  IC50: > 4 µM
[7]
  IC50: 1.19 µM
[8]
  IC50: > 4 µM
[9]
  IC50: > 4 µM
[10]
  IC50: 1.3 µM
[11]
  IC50: > 4 µM
[12]
  IC50: > 4 µM
[13]
  IC50: > 4 µM
[14]
  IC50: > 4 µM
[15]
  IC50: 1.03 µM
[16]
  IC50: > 4 µM
[17]
  IC50: > 4 µM
[18]
  IC50: > 4 µM
[19]
  IC50: > 4 µM
[20]
  IC50: > 4 µM
[21]
  IC50: > 4 µM
[22]
  IC50: > 4 µM
[23]
  IC50: 1.16 µM
[24]
  IC50: > 4 µM
[25]
  IC50: > 4 µM
[26]
  IC50: 0.494 µM
[27]
  IC50: > 4 µM
[28]
  IC50: > 4 µM
[29]
  IC50: 2.29 µM
[31]
  IC50: 1.95 µM
[32]
  IC50: 3.96 µM
[33]
  IC50: > 4 µM
[36]
  IC50: > 4 µM
[37]
  IC50: 0.324 µM
[38]
  IC50: 2.42 µM
[39]
  IC50: > 4 µM
[40]
  IC50: > 4 µM
[41]
  IC50: 3.06 µM
[42]
  IC50: > 4 µM
[43]
  IC50: > 4 µM
